Experimental data from patent publication US8546565B2, “Quinazolinamide derivatives” (Merck Patent Gesellschaft, priority 2008, dated 2013).

Molecular target: T1, Recombinant human HSP90a (Homo sapiens, UniProt P07900)
T1 construct: host or cells: E. coli
Test: HSP90 radioligand filter binding test ([3H]17AAG competition)
Conditions: [3H]17AAG 0.08 μM, HSP90 1.5 μg/assay, 22° C., 30 min; read-out: IC50 (HSP90 inhibition)
Excerpt: Test Method for the Measurement of HSP90 Inhibitors
The binding of geldanamycin or 17-allylamino-17-demethoxygeldanamycin (17AAG) to HSP90 and competitive inhibition thereof can be utilised in order to determine the inhibitory activity of the compounds according to the invention (Carreras et al. 2003, Chiosis et al. 2002).
In the specific case, a radioligand filter binding test is used. The radioligand used here is tritium-labelled 17-allylaminogeldanamycin, [3H]17AAG. This filter binding test allows a targeted search for inhibitors which interfere with the ATP binding site.
Recombinant human HSP90a (E. coli expressed, 95% purity);
[3H]17AAG (17-allylaminogeldanamycin, [allylamino-2,3-^3H. Specific activity: 1.11×10^12 Bq/mmol (Moravek, MT-1717);
HEPES filter buffer (50 mM HEPES, pH 7.0, 5 mM MgCl2, BSA 0.01%)
Multiscreen FB (1 μm) filter plate (Millipore, MAFBNOB 50).
The 96-well microtitre filter plates are firstly irrigated and coated with 0.1% of polyethylenimine.
The test is carried out under the following conditions:
Reaction temperature 22° C.
Reaction time: 30 min., shaking at 800 rpm
50 mM HEPES HCl, pH 7.0, 5 mM MgCl2, 0.01% (w/v) of BSA
At the end of the reaction, the supernatant in the filter plate is removed by suction with the aid of a vacuum manifold (Multiscreen Separation System, Millipore), and the filter is washed twice.
The filter plates are then measured in a beta counter (Microbeta, Wallac) with scintillator (Microscint 20, Packard).
“% of control” is determined from the “counts per minutes” values, and the IC-50 value of a compound is calculated therefrom.

Structure (SMILES)	IC50 [nM]
Nc1nc(C(=O)N2Cc3ccccc3C2)c2cc(-c3ccccc3C(=O)N3CC[C@H](F)C3)ccc2n1 [Compound A62]	10 to 1000
Nc1nc(C(=O)N2Cc3ccccc3C2)c2cc(-c3ccccc3S(=O)(=O)N3CC(N)C3)ccc2n1 [Compound A29, {2-amino-6-[2-(3-aminoazetidine-1-sulfonyl)phenyl]quinazolin-4-yl}-(1,3-dihydroisoindol-2-yl)methanone]	10 to 1000
Cc1nccn1S(=O)(=O)c1ccccc1-c1ccc2nc(N)nc(C(=O)N3Cc4ccccc4C3)c2c1 [Compound A28, {2-Amino-6-[2-(2-methylimidazole-1-sulfonyl)phenyl]quinazolin-4-yl}-(1,3-dihydroisoindol-2-yl)methanone]	10 to 1000
CCN(CCO)S(=O)(=O)c1ccccc1-c1ccc2nc(N)nc(C(=O)N3Cc4ccccc4C3)c2c1 [Compound A25, 2-[2-Amino-4-(1,3-dihydroisoindole-2-carbonyl)quinazolin-6-yl]-N-ethyl-N-(2-hydroxyethyl)benzenesulfonamide]	10 to 1000
CC1CCC(C)N1C(=O)c1ccccc1-c1ccc2nc(N)nc(C(=O)N3Cc4ccccc4C3)c2c1 (stereo not shown) [Compound A57]	10 to 1000
Nc1nc(C(=O)N2Cc3ccccc3C2)c2cc(-c3ccccc3S(N)(=O)=O)ccc2n1 [Compound A2, 2-[2-amino-4-(1,3-dihydroisoindole-2-carbonyl)quinazolin-6-yl]-benzenesulfonamide]	10 to 1000
CN(C1CNC1)S(=O)(=O)c1ccccc1-c1ccc2nc(N)nc(C(=O)N3Cc4ccccc4C3)c2c1 [Compound A68]	10 to 1000
Nc1nc(C(=O)N2Cc3ccccc3C2)c2cc(-c3ccccc3S(=O)(=O)N3CCCC3C(=O)NCCO)ccc2n1 (stereo not shown) [Compound A61, N-(2-hydroxyethyl)-1-{2-[2-amino-4-(1,3-dihydroisoindole-2-carbonyl)quinazolin-6-yl]benzenesulfonyl}pyrrolidine-2-carboxamide]	10 to 1000
Nc1nc(C(=O)N2Cc3ccccc3C2)c2cc(-c3ccccc3S(=O)(=O)N3CCNC(=O)C3)ccc2n1 [Compound A12]	10 to 1000
CC(C)(C)NS(=O)(=O)c1ccccc1-c1ccc2nc(N)nc(C(=O)N3Cc4ccccc4C3)c2c1 [Compound A1, 2-[2-Amino-4-(1,3-dihydroisoindole-2-carbonyl)quinazolin-6-yl]-N-tert-butylbenzenesulfonamide]	10 to 1000
COc1cc(C(=O)NC(C)(C)C)c(-c2ccc3nc(N)nc(C(=O)N4Cc5ccccc5C4)c3c2)cc1OC [Compound A85, 2-[2-Amino-4-(1,3-dihydroisoindole-2-carbonyl)quinazolin-6-yl]-N-tert-butyl-4,5-dimethoxybenzamide]	> 10000
Cc1cn(S(=O)(=O)c2ccccc2-c2ccc3nc(N)nc(C(=O)N4Cc5ccccc5C4)c3c2)cn1 [Compound A30, {2-Amino-6-[2-(4-methylimidazole-1-sulfonyl)phenyl]quinazolin-4-yl}-(1,3-dihydroisoindol-2-yl)methanone]	10 to 1000
Nc1nc(C(=O)N2Cc3ccccc3C2)c2cc(-c3ccccc3C(=O)N3CCC3)ccc2n1 [Compound A54]	10 to 1000
Nc1nc(C(=O)N2Cc3ccccc3C2)c2cc(-c3ccccc3S(=O)(=O)NC3CC3)ccc2n1 [Compound A52, 2-[2-Amino-4-(1,3-dihydroisoindole-2-carbonyl)quinazolin-6-yl]-N-cyclopropylbenzenesulfonamide]	10 to 1000
CN(CCO)S(=O)(=O)c1ccccc1-c1ccc2nc(N)nc(C(=O)N3Cc4ccccc4C3)c2c1 [Compound A8]	10 to 1000
Nc1nc(C(=O)N2Cc3ccccc3C2)c2cc(-c3ccccc3S(=O)(=O)N3CCC(N)C3)ccc2n1 (stereo not shown) [Compound A33, {2-amino-6-[2-(3-aminopyrrolidine-1-sulfonyl)phenyl]quinazolin-4-yl}-(1,3-dihydroisoindol-2-yl)methanone]	10 to 1000

Now from value to molecule:

IC50 [nM]	Structure (SMILES)
10 to 1000	CC1CCCN1C(=O)c1ccccc1-c1ccc2nc(N)nc(C(=O)N3Cc4ccccc4C3)c2c1 (stereo not shown) [Compound A42, {2-Amino-6-[2-(2-methylpyrrolidine-1-carbonyl)phenyl]quinazolin-4-yl}-(1,3-dihydroisoindol-2-yl)methanone]
10 to 1000	Nc1nc(C(=O)N2Cc3ccccc3C2)c2cc(-c3ccccc3C(=O)N3CCC(O)CC3)ccc2n1 [Compound A23]
10 to 1000	Nc1nc(C(=O)N2Cc3ccccc3C2)c2cc(-c3ccccc3S(=O)(=O)NC3CNC3)ccc2n1 [Compound A26, 2-[2-amino-4-(1,3-dihydroisoindole-2-carbonyl)quinazolin-6-yl]-N-azetidin-3-ylbenzenesulfonamide]
10 to 1000	Nc1nc(C(=O)N2Cc3ccccc3C2)c2cc(-c3ccccc3C(=O)N3CCC(N)C3)ccc2n1 (stereo not shown) [Compound A43, {2-amino-6-[2-(3-aminopyrrolidine-1-carbonyl)phenyl]quinazolin-4-yl}-(1,3-dihydroisoindol-2-yl)methanone]
10 to 1000	Nc1nc(C(=O)N2Cc3ccccc3C2)c2cc(-c3ccccc3S(=O)(=O)N3CC(F)(F)C3)ccc2n1 [Compound A60]
10 to 1000	CN(Cc1cncn1C)S(=O)(=O)c1ccccc1-c1ccc2nc(N)nc(C(=O)N3Cc4ccccc4C3)c2c1 [Compound A18]
10 to 1000	CCNC(=O)c1cc(F)ccc1-c1ccc2nc(N)nc(C(=O)N3Cc4ccccc4C3)c2c1 [Compound A83, 2-[2-Amino-4-(1,3-dihydroisoindole-2-carbonyl)quinazolin-6-yl]-N-ethyl-5-fluorobenzamide]
10 to 1000	CCNC(=O)c1ccccc1-c1ccc2nc(N)nc(C(=O)N3Cc4ccccc4C3)c2c1 [Compound A41, 2-[2-Amino-4-(1,3-dihydroisoindole-2-carbonyl)quinazolin-6-yl]-N-ethylbenzamide]
10 to 1000	Nc1nc(C(=O)N2Cc3ccccc3C2)c2cc(-c3ccccc3C(=O)N3CCC(F)(F)C3)ccc2n1 [Compound A49, {2-Amino-6-[2-(3,3-difluoropyrrolidine-1-carbonyl)phenyl]quinazolin-4-yl}-(1,3-dihydroisoindol-2-yl)methanone]
10 to 1000	CNCCN(C)S(=O)(=O)c1ccccc1-c1ccc2nc(N)nc(C(=O)N3Cc4ccccc4C3)c2c1 [Compound A13, 2-[2-Amino-4-(1,3-dihydroisoindole-2-carbonyl)quinazolin-6-yl]-N-methyl-N-(2-methylaminoethyl)benzenesulfonamide]
10 to 1000	CCN(CCO)C(=O)c1ccccc1-c1ccc2nc(N)nc(C(=O)N3Cc4ccccc4C3)c2c1 [Compound A24]
10 to 1000	CCNC(=O)c1ccc(Cl)cc1-c1ccc2nc(N)nc(C(=O)N3Cc4ccccc4C3)c2c1 [Compound A86, 2-[2-Amino-4-(1,3-dihydroisoindole-2-carbonyl)quinazolin-6-yl]-4-chloro-N-ethylbenzamide]
10 to 1000	CN(C)CCNS(=O)(=O)c1ccccc1-c1ccc2nc(N)nc(C(=O)N3Cc4ccccc4C3)c2c1 [Compound A3]
10 to 1000	Nc1nc(C(=O)N2Cc3ccccc3C2)c2cc(-c3ccccc3S(=O)(=O)N3CCC(O)C3)ccc2n1 (stereo not shown) [Compound A31]
10 to 1000	CCN(C)C(=O)c1cc(F)c(F)cc1-c1ccc2nc(N)nc(C(=O)N3Cc4ccccc4C3)c2c1 [Compound A77, 2-[2-Amino-4-(1,3-dihydroisoindole-2-carbonyl)quinazolin-6-yl]-N-ethyl-4,5-difluoro-N-methylbenzamide]
10 to 1000	Nc1nc(C(=O)N2Cc3ccccc3C2)c2cc(-c3ccccc3S(=O)(=O)N3CC[C@H](F)C3)ccc2n1 [Compound A67, {2-Amino-6-[2-((S)-3-fluoropyrrolidine-1-sulfonyl)phenyl]quinazolin-4-yl}-(1,3-dihydroisoindol-2-yl)methanone]
10 to 1000	CC1CCC(C)N1S(=O)(=O)c1ccccc1-c1ccc2nc(N)nc(C(=O)N3Cc4ccccc4C3)c2c1 (stereo not shown) [Compound A64, {2-amino-6-[2-(2,5-dimethylpyrrolidine-1-sulfonyl)phenyl]-quinazolin-4-yl}-(1,3-dihydroisoindol-2-yl)methanone]
10 to 1000	CC(=O)NC1CCN(S(=O)(=O)c2ccccc2-c2ccc3nc(N)nc(C(=O)N4Cc5ccccc5C4)c3c2)C1 (stereo not shown) [Compound A20]
10 to 1000	CN(CCOC(=O)CN)S(=O)(=O)c1ccccc1-c1ccc2nc(N)nc(C(=O)N3Cc4ccccc4C3)c2c1 [Compound A15, 2-({2-[2-amino-4-(1,3-dihydroisoindole-2-carbonyl)quinazolin-6-yl]benzenesulfonyl}methylamino)ethyl aminoacetate]
10 to 1000	CC1CCCN1C(=O)c1cc(F)c(F)cc1-c1ccc2nc(N)nc(C(=O)N3Cc4ccccc4C3)c2c1 (stereo not shown) [Compound A79, {2-Amino-6-[4,5-difluoro-2-(2-methylpyrrolidine-1-carbonyl)phenyl]quinazolin-4-yl}-(1,3-dihydroisoindol-2-yl)methanone]
10 to 1000	CCNC(=O)c1cc(F)c(F)cc1-c1ccc2nc(N)nc(C(=O)N3Cc4ccccc4C3)c2c1 [Compound A74, 2-[2-Amino-4-(1,3-dihydroisoindole-2-carbonyl)quinazolin-6-yl]-N-ethyl-4,5-difluorobenzamide]
